Data published in publication PMC5218480 (PLoS ONE, 2017).

Tested on: MV-4-11 cells
Experiment: Gene expression microarray analysis (Affymetrix PrimeView) and GSEA
Format: cell-based, human
Set-up: RFU PODN (11730768_x_at) / Fold change /veh PODN (11730768_x_at) / RFU LINC00158 (11744669_a_at) / Fold change /veh LINC00158 (11744669_a_at) / RFU DUSP10 (11751237_a_at) / Fold change /veh DUSP10 (11751237_a_at) / RFU ID3 (11757404_x_at) / Fold change /veh ID3 (11757404_x_at) / RFU PLEKHG5 (11737974_s_at) / Fold change /veh PLEKHG5 (11737974_s_at) / RFU LRRC4B (11730491_at) / Fold change /veh LRRC4B (11730491_at) / RFU GIMAP4 (11747438_a_at) / Fold change /veh GIMAP4 (11747438_a_at) / RFU KRT8 (11758183_x_at) / Fold change /veh KRT8 (11758183_x_at) / RFU CNN1 (11734310_a_at) / Fold change /veh CNN1 (11734310_a_at) / RFU VPS37D (11726825_at) / Fold change /veh VPS37D (11726825_at) / RFU C10orf10 (11716522_x_at) / Fold change /veh C10orf10 (11716522_x_at) / RFU KIR2DL2 /// KIR2DL4 /// KIR2DL5A /// KIR2DL5B /// KIR2DS1 /// KIR2DS2 /// KIR2DS3 /// KIR2DS4 /// KIR3DL3 /// KIR3DL3 /// KIR3DS1 (11738374_at) / Fold change /veh KIR2DL2 /// KIR2DL4 /// KIR2DL5A /// KIR2DL5B /// KIR2DS1 /// KIR2DS2 /// KIR2DS3 /// KIR2DS4 /// KIR3DL3 /// KIR3DL3 /// KIR3DS1 (11738374_at) / RFU C1QL1 (11718748_at) / Fold change /veh C1QL1 (11718748_at) / RFU TMPRSS4 (11747572_a_at) / Fold change /veh TMPRSS4 (11747572_a_at) / RFU HAMP (11756126_x_at) / Fold change /veh HAMP (11756126_x_at) / RFU RNFT2 (11725882_a_at) / Fold change /veh RNFT2 (11725882_a_at) / RFU NR4A2 (11747474_a_at) / Fold change /veh NR4A2 (11747474_a_at) / RFU ABCC12 (11746883_a_at) / Fold change /veh ABCC12 (11746883_a_at) / RFU TMEM136 (11760407_x_at) / Fold change /veh TMEM136 (11760407_x_at) / RFU CLDN22 /// WWC2 (11732394_at) / Fold change /veh CLDN22 /// WWC2 (11732394_at) / RFU HLA-DPB1 (11760878_x_at) / Fold change /veh HLA-DPB1 (11760878_x_at) / RFU SPINT1 (11716480_a_at) / Fold change /veh SPINT1 (11716480_a_at) / RFU GAP43 (11754022_s_at) / Fold change /veh GAP43 (11754022_s_at) / RFU A4GNT (11735810_at) / Fold change /veh A4GNT (11735810_at) / RFU PRB3 (11715151_x_at) / Fold change /veh PRB3 (11715151_x_at) / RFU TUBB4B (11761932_at) / Fold change /veh TUBB4B (11761932_at) / RFU CAPN14 (11732068_a_at) / Fold change /veh CAPN14 (11732068_a_at) / RFU TMCC2 (11721928_a_at) / Fold change /veh TMCC2 (11721928_a_at) / RFU IRGQ (11745062_a_at) / Fold change /veh IRGQ (11745062_a_at) / RFU FAM174B (11720279_a_at) / Fold change /veh FAM174B (11720279_a_at) / RFU TMPRSS4 (11748680_a_at) / Fold change /veh TMPRSS4 (11748680_a_at) / RFU FAM212B (11763350_a_at) / Fold change /veh FAM212B (11763350_a_at) / RFU PLEKHG5 (11743358_a_at) / Fold change /veh PLEKHG5 (11743358_a_at) / RFU ZSCAN30 (11745921_a_at) / Fold change /veh ZSCAN30 (11745921_a_at) / RFU CMKLR1 (11741424_a_at) / Fold change /veh CMKLR1 (11741424_a_at) / RFU LOC101060620 /// MAPK8IP1 (11723275_at) / Fold change /veh LOC101060620 /// MAPK8IP1 (11723275_at) / RFU SPTSSB (11747773_x_at) / Fold change /veh SPTSSB (11747773_x_at) / RFU PRSS12 (11739890_at) / Fold change /veh PRSS12 (11739890_at) / RFU BIN1 (11741810_x_at) / Fold change /veh BIN1 (11741810_x_at) / RFU WNT11 (11732464_a_at) / Fold change /veh WNT11 (11732464_a_at) / RFU C10orf10 (11716521_a_at) / Fold change /veh C10orf10 (11716521_a_at) / RFU C5orf56 (11738089_at) / Fold change /veh C5orf56 (11738089_at) / RFU CYB561 (11721691_x_at) / Fold change /veh CYB561 (11721691_x_at) / RFU ANKRD19P (11752326_a_at) / Fold change /veh ANKRD19P (11752326_a_at) / RFU OR2T12 /// OR2T33 /// OR2T8 (11738714_s_at) / Fold change /veh OR2T12 /// OR2T33 /// OR2T8 (11738714_s_at) / RFU VCAN (11748164_a_at) / Fold change /veh VCAN (11748164_a_at) / RFU JSRP1 (11732532_at) / Fold change /veh JSRP1 (11732532_at) / RFU KRTAP10-11 (11738290_x_at) / Fold change /veh KRTAP10-11 (11738290_x_at) / RFU MYO3A (11730013_a_at) / Fold change /veh MYO3A (11730013_a_at) / RFU EBF3 (11725865_a_at) / Fold change /veh EBF3 (11725865_a_at) / RFU CAMK2N1 (11719241_x_at) / Fold change /veh CAMK2N1 (11719241_x_at) / RFU C5orf56 (11738088_a_at) / Fold change /veh C5orf56 (11738088_a_at) / RFU OLFML3 (11715873_a_at) / Fold change /veh OLFML3 (11715873_a_at) / RFU LOC100653217 /// NTM (11731650_a_at) / Fold change /veh LOC100653217 /// NTM (11731650_a_at) / RFU MAPK11 (11762145_a_at) / Fold change /veh MAPK11 (11762145_a_at) / RFU FIZ1 (11724087_x_at) / Fold change /veh FIZ1 (11724087_x_at) / RFU OASL (11726364_x_at) / Fold change /veh OASL (11726364_x_at) / RFU SOX15 (11748057_x_at) / Fold change /veh SOX15 (11748057_x_at) / RFU CD79A (11719716_a_at) / Fold change /veh CD79A (11719716_a_at) / RFU HIST1H1D (11736915_at) / Fold change /veh HIST1H1D (11736915_at) / RFU CASKIN2 (11723855_a_at) / Fold change /veh CASKIN2 (11723855_a_at) / RFU LOC730098 (11760151_x_at) / Fold change /veh LOC730098 (11760151_x_at) / RFU OR4N2 (11742367_at) / Fold change /veh OR4N2 (11742367_at) / RFU PRRT2 (11749266_a_at) / Fold change /veh PRRT2 (11749266_a_at) / RFU SNX32 (11753110_a_at) / Fold change /veh SNX32 (11753110_a_at) / RFU CDHR5 (11726645_a_at) / Fold change /veh CDHR5 (11726645_a_at) / RFU RCAN1 (11760418_a_at) / Fold change /veh RCAN1 (11760418_a_at) / RFU FAM167A (11723789_a_at) / Fold change /veh FAM167A (11723789_a_at) / RFU FAM26E (11764081_at) / Fold change /veh FAM26E (11764081_at) / RFU ISYNA1 (11749810_s_at) / Fold change /veh ISYNA1 (11749810_s_at) / RFU ACY1 (11761880_at) / Fold change /veh ACY1 (11761880_at) / RFU 11764098_at / Fold change /veh 11764098_at / RFU SAMD14 (11745864_x_at) / Fold change /veh SAMD14 (11745864_x_at) / RFU NPB (11741838_a_at) / Fold change /veh NPB (11741838_a_at) / RFU TMPRSS6 (11731388_a_at) / Fold change /veh TMPRSS6 (11731388_a_at) / RFU KRTAP10-2 (11738614_at) / Fold change /veh KRTAP10-2 (11738614_at) / RFU ARHGAP8 /// PRR5-ARHGAP8 (11727945_x_at) / Fold change /veh ARHGAP8 /// PRR5-ARHGAP8 (11727945_x_at) / RFU KRTAP5-7 /// NADSYN1 (11734609_at) / Fold change /veh KRTAP5-7 /// NADSYN1 (11734609_at) / RFU RASL12 (11751679_a_at) / Fold change /veh RASL12 (11751679_a_at) / RFU CDKN2B (11736163_a_at) / Fold change /veh CDKN2B (11736163_a_at) / RFU PRF1 (11729649_at) / Fold change /veh PRF1 (11729649_at) / RFU, ZNF638 /// ZNF638-IT1 / Fold change vs veh, ZNF638 /// ZNF638-IT1 / RFU, PANK3 / Fold change vs veh, PANK3 / RFU, SH3YL1 / Fold change vs veh, SH3YL1 / RFU, ZEB2 / Fold change vs veh, ZEB2 / RFU, NRIP1 / Fold change vs veh, NRIP1 / RFU, PTTG1IP / Fold change vs veh, PTTG1IP / RFU, CAPN2 / Fold change vs veh, CAPN2 / RFU, MED14 / Fold change vs veh, MED14 / RFU, SNORA58 / Fold change vs veh, SNORA58 / RFU, C1orf63 / Fold change vs veh, C1orf63 / RFU, LRRFIP1 / Fold change vs veh, LRRFIP1 / RFU, NDUFAF7 / Fold change vs veh, NDUFAF7 / RFU, SLC12A2 / Fold change vs veh, SLC12A2 / RFU, IBTK / Fold change vs veh, IBTK / RFU, ESF1 / Fold change vs veh, ESF1 / Fold change vs veh, TMEM50B / RFU, TAOK1 / Fold change vs veh, TAOK1 / RFU, ACBD3 / Fold change vs veh, ACBD3 / RFU, TMA16 / Fold change vs veh, TMA16 / RFU, RWDD3 / Fold change vs veh, RWDD3 / RFU, BCAT1 / Fold change vs veh, BCAT1 / RFU, EDEM3 / Fold change vs veh, EDEM3 / RFU, TMEM33 / Fold change vs veh, TMEM33 / RFU, WDR75 / Fold change vs veh, WDR75 / RFU, AHCTF1 / Fold change vs veh, AHCTF1 / RFU, TFRC / Fold change vs veh, TFRC / RFU, ZDHHC17 / Fold change vs veh, ZDHHC17 / RFU, NOM1 / Fold change vs veh, NOM1 / RFU, ARL8B / Fold change vs veh, ARL8B / RFU, ZBTB11 / Fold change vs veh, ZBTB11 / RFU, TAMM41 / Fold change vs veh, TAMM41 / RFU, KIAA1704 /// LOC100996395 / Fold change vs veh, KIAA1704 /// LOC100996395 / RFU, ING1 / Fold change vs veh, ING1 / RFU, TRMT61B / Fold change vs veh, TRMT61B / RFU, FUBP3 / Fold change vs veh, FUBP3 / RFU, TP53 / Fold change vs veh, TP53 / RFU, TNKS2 / Fold change vs veh, TNKS2 / RFU, ZFP14 / Fold change vs veh, ZFP14 / RFU, ACTR2 / Fold change vs veh, ACTR2 / RFU, PPP3R1 / Fold change vs veh, PPP3R1 / RFU, PIK3R1 / Fold change vs veh, PIK3R1 / RFU, HNRNPA1 / Fold change vs veh, HNRNPA1 / RFU, RNF170 / Fold change vs veh, RNF170 / RFU, ZNF28 / Fold change vs veh, ZNF28 / RFU, RNGTT / Fold change vs veh, RNGTT / RFU, OGT / Fold change vs veh, OGT / RFU, BRD1 / Fold change vs veh, BRD1 / RFU, MARS / Fold change vs veh, MARS / RFU, ZNF655 / Fold change vs veh, ZNF655 / RFU, FAHD1 / Fold change vs veh, FAHD1 / RFU, BDP1 / Fold change vs veh, BDP1 / RFU, LRRCC1 / Fold change vs veh, LRRCC1 / RFU, ARID1A / Fold change vs veh, ARID1A / RFU, ZNF146 / Fold change vs veh, ZNF146 / RFU, ZNF330 / Fold change vs veh, ZNF330 / RFU, GPN3 / Fold change vs veh, GPN3 / RFU, C9orf123 / Fold change vs veh, C9orf123 / RFU, N4BP2L2 / Fold change vs veh, N4BP2L2 / RFU, ARFIP1 / Fold change vs veh, ARFIP1 / RFU, FAM179B / Fold change vs veh, FAM179B / RFU, BCL10 / Fold change vs veh, BCL10 / RFU, UHRF1BP1L / Fold change vs veh, UHRF1BP1L / RFU, BET1 / Fold change vs veh, BET1 / RFU, CNOT2 / Fold change vs veh, CNOT2 / RFU, ZNF268 / Fold change vs veh, ZNF268 / Fold change vs veh, ZNF507 / RFU, DGCR2 / Fold change vs veh, DGCR2 / RFU, WDSUB1 / Fold change vs veh, WDSUB1 / Fold change vs veh, HSP90B1 /// MIR3652 / RFU, ADSS / Fold change vs veh, ADSS / RFU, GK / Fold change vs veh, GK / RFU, ZNF148 / Fold change vs veh, ZNF148 / RFU, TAF9 / Fold change vs veh, TAF9 / RFU, SLC1A5 / Fold change vs veh, SLC1A5 / RFU, SLMO2 / Fold change vs veh, SLMO2 / RFU, ABCC4 / Fold change vs veh, ABCC4 / RFU, LOC101060439 /// RAP1B / Fold change vs veh, LOC101060439 /// RAP1B / RFU, RFX7 / Fold change vs veh, RFX7 / RFU, GTPBP10 / Fold change vs veh, GTPBP10 / RFU, CNEP1R1 / Fold change vs veh, CNEP1R1 / RFU, BIVM-ERCC5 /// ERCC5 / Fold change vs veh, BIVM-ERCC5 /// ERCC5 / RFU, ILF3 / Fold change vs veh, ILF3 / RFU 11762660_at / Fold change /veh 11762660_at / RFU VCAN (11757783_s_at) / Fold change /veh VCAN (11757783_s_at) / RFU DDX43 (11728927_at) / Fold change /veh DDX43 (11728927_at) / RFU KRT8 (11758188_x_at) / Fold change /veh KRT8 (11758188_x_at) / RFU NKD1 (11759106_at) / Fold change /veh NKD1 (11759106_at) / RFU SRD5A1 (11742802_a_at) / Fold change /veh SRD5A1 (11742802_a_at) / RFU TPSAB1 /// TPSB2 (11721975_s_at) / Fold change /veh TPSAB1 /// TPSB2 (11721975_s_at) / RFU GSTM3 (11746129_a_at) / Fold change /veh GSTM3 (11746129_a_at) / RFU IL23R (11737362_x_at) / Fold change /veh IL23R (11737362_x_at) / RFU TMEM51 (11727254_a_at) / Fold change /veh TMEM51 (11727254_a_at) / RFU PIWIL2 (11732686_x_at) / Fold change /veh PIWIL2 (11732686_x_at) / RFU ORM1 (11744905_x_at) / Fold change /veh ORM1 (11744905_x_at) / RFU CCDC152 (11743942_at) / Fold change /veh CCDC152 (11743942_at) / RFU ECM1 (11717891_a_at) / Fold change /veh ECM1 (11717891_a_at) / RFU IL23R (11748794_a_at) / Fold change /veh IL23R (11748794_a_at) / RFU TNFAIP8L3 (11732012_x_at) / Fold change /veh TNFAIP8L3 (11732012_x_at) / RFU MBOAT4 (11741988_at) / Fold change /veh MBOAT4 (11741988_at) / RFU 11764193_at / Fold change /veh 11764193_at / RFU TMEM53 (11763286_at) / Fold change /veh TMEM53 (11763286_at) / RFU MAGEB2 (11727129_at) / Fold change /veh MAGEB2 (11727129_at) / RFU TMEM200A (11744735_a_at) / Fold change /veh TMEM200A (11744735_a_at) / RFU CCDC152 (11751479_a_at) / Fold change /veh CCDC152 (11751479_a_at) / RFU FAM211A (11726209_a_at) / Fold change /veh FAM211A (11726209_a_at) / RFU RGS16 (11746705_a_at) / Fold change /veh RGS16 (11746705_a_at) / RFU VCAN (11755009_s_at) / Fold change /veh VCAN (11755009_s_at) / RFU RHOB (11743442_s_at) / Fold change /veh RHOB (11743442_s_at) / RFU RGS16 (11720943_a_at) / Fold change /veh RGS16 (11720943_a_at) / RFU RGS16 (11720944_at) / Fold change /veh RGS16 (11720944_at) / RFU, VPS4B / Fold change vs veh, VPS4B / RFU, CREB1 / Fold change vs veh, CREB1 / RFU, DNAJC13 / Fold change vs veh, DNAJC13 / RFU, GNAQ / Fold change vs veh, GNAQ / RFU, CDK5R1 / Fold change vs veh, CDK5R1 / RFU, ZRANB3 / Fold change vs veh, ZRANB3 / RFU, CUL4A / Fold change vs veh, CUL4A / RFU, CCNY / Fold change vs veh, CCNY / RFU, UFL1 / Fold change vs veh, UFL1 / RFU, COG3 / Fold change vs veh, COG3 / RFU, DIAPH2 / Fold change vs veh, DIAPH2 / RFU, SKA2 / Fold change vs veh, SKA2 / RFU, AFF3 / Fold change vs veh, AFF3 / RFU, LMF1 / Fold change vs veh, LMF1 / RFU, IPO11 / Fold change vs veh, IPO11 / RFU, DFFB / Fold change vs veh, DFFB / RFU, FOXP1 / Fold change vs veh, FOXP1 / RFU, CARD8 / Fold change vs veh, CARD8 / RFU, STRN3 / Fold change vs veh, STRN3 / RFU, ADK / Fold change vs veh, ADK / RFU, RASSF2 / Fold change vs veh, RASSF2 / RFU, WIPF1 / Fold change vs veh, WIPF1 / RFU, LARP1B / Fold change vs veh, LARP1B / RFU, RASA1 / Fold change vs veh, RASA1 / RFU, RB1 / Fold change vs veh, RB1 / RFU, PPFIA1 / Fold change vs veh, PPFIA1 / RFU, MAT2A / Fold change vs veh, MAT2A / RFU, CCT5 / Fold change vs veh, CCT5 / RFU, WDR92 / Fold change vs veh, WDR92 / RFU, CUX1 / Fold change vs veh, CUX1 / RFU, TTC7A / Fold change vs veh, TTC7A / RFU, TMEM135 / Fold change vs veh, TMEM135 / RFU, DEPTOR / Fold change vs veh, DEPTOR / RFU, CPM / Fold change vs veh, CPM / RFU, DNAJB6 / Fold change vs veh, DNAJB6 / RFU, CACNA2D3 / Fold change vs veh, CACNA2D3 / RFU, DTX4 / Fold change vs veh, DTX4 / RFU, TFCP2 / Fold change vs veh, TFCP2 / RFU, GMCL1 /// GMCL1P1 / Fold change vs veh, GMCL1 /// GMCL1P1 / RFU, AEBP2 / Fold change vs veh, AEBP2 / RFU, SNHG1 /// SNORD22 /// SNORD25 /// SNORD26 /// SNORD27 /// SNORD28 /// SNORD29 /// SNORD31 / Fold change vs veh, SNHG1 /// SNORD22 /// SNORD25 /// SNORD26 /// SNORD27 /// SNORD28 /// SNORD29 /// SNORD31 / Fold change (Aza/veh), C12orf56 (ProbeSet 11735607_a_at) / Fold change (ACY-1035/veh), C12orf56 (ProbeSet 11735607_a_at) / Fold change (Aza/veh), FGFR1OP (ProbeSet 11751329_s_at) / Fold change (ACY-1035/veh), FGFR1OP (ProbeSet 11751329_s_at) / Fold change (Aza/veh), VPS36 (ProbeSet 11739960_a_at) / Fold change (ACY-1035/veh), VPS36 (ProbeSet 11739960_a_at) / RFU SYPL1 (11715823_x_at) / Fold change /veh SYPL1 (11715823_x_at) / RFU IGFBP7 (11715501_s_at) / Fold change /veh IGFBP7 (11715501_s_at) / RFU REEP3 (11722064_at) / Fold change /veh REEP3 (11722064_at) / RFU IGLL1 (11728026_x_at) / Fold change /veh IGLL1 (11728026_x_at): dose or concentration left out as unconfirmed
Conditions: MV-4-11 cells, 48 hours

Compound: Nc1ccc(-c2cccs2)cc1NC(=O)c1ccc2c(c1)cc(C1CC1)n2CCN1CCOCC1 [ACY-1035]
- Fold change /veh CLDN22 /// WWC2 (11732394_at): 1.04
